From patent publication US20250186437A1, “CARBOLINE COMPOUNDS AND USE THEREOF” (PTC Therapeutics, Inc., priority 2021, published 2025)

Tested on: MOLM-13 cells
Test: MOLM-13 Cell Proliferation Assay (indicator of DHODH inhibition)
Assay type: cell-based
Conditions: Homo sapiens, 72 Hours of culture, CellTiter-Glo, no uridine
Outline: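 Proliferation readout via CellTiter-Glo luminescence after 72 h compound treatment (37 °C, 5% CO2, 0.5% DMSO) of MOLM-13 cells seeded at 10^4 per well in RPMI 1640/10% FBS, used as a DHODH-inhibition indicator since these cells rely on de novo pyrimidine synthesis.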

Cc1ncc(C2c3[nH]c4cc(F)c(Cl)cc4c3CCN2c2ncc(Cl)cn2)cn1 (centres unmarked) [Compound 101, 6-chloro-2-(5-chloropyrimidin-2-yl)-7-fluoro-1-(2-methylpyrimidin-5-yl)-2,3,4,9-tetrahydro-1H-pyrido[3,4-b]indole]
IC50: 110 nM

CN(C)c1ncc(C2c3[nH]c4cc(F)c(Cl)cc4c3CCN2c2ncc(Cl)cn2)cn1 (centres unmarked) [Compound 102, 5-[6-chloro-2-(5-chloropyrimidin-2-yl)-7-fluoro-2,3,4,9-tetrahydro-1H-pyrido[3,4-b]indol-1-yl]-N,N-dimethylpyrimidin-2-amine]
IC50: 19.6 nM

COC(=O)c1ccnc(N2CCc3c([nH]c4ccc(Cl)c(F)c34)C2c2ccc(C#N)cc2)n1 (centres unmarked) [Compound 104, methyl 2-[6-chloro-1-(4-cyanophenyl)-5-fluoro-1,3,4,9-tetrahydro-2H-pyrido[3,4-b]indol-2-yl]pyrimidine-4-carboxylate]
IC50: 30.4 nM

Cc1nc(N2CCc3c([nH]c4cc(F)c(Cl)cc34)C2c2ccc(F)cc2)ncc1F (centres unmarked) [Compound 105, 6-chloro-7-fluoro-2-(5-fluoro-4-methylpyrimidin-2-yl)-1-(4-fluorophenyl)-2,3,4,9-tetrahydro-1H-pyrido[3,4-b]indole]
IC50: 23.3 nM

CS(=O)(=O)c1ccc(C2c3[nH]c4cc(F)c(Cl)cc4c3CCN2c2ncc(F)cn2)cc1 (centres unmarked) [Compound 107, 6-chloro-7-fluoro-2-(5-fluoropyrimidin-2-yl)-1-[4-(methanesulfonyl)phenyl]-2,3,4,9-tetrahydro-1H-pyrido[3,4-b]indole]
IC50: 44.6 nM

Cc1ccc(C2c3[nH]c4ccc(Cl)c(F)c4c3CCN2c2ncc(F)c(C)n2)cc1 (centres unmarked) [Compound 109, 6-chloro-5-fluoro-2-(5-fluoro-4-methylpyrimidin-2-yl)-1-(4-methylphenyl)-2,3,4,9-tetrahydro-1H-pyrido[3,4-b]indole]
IC50: 5.6 nM

Cc1ccc(C2c3[nH]c4ccc(Cl)c(F)c4c3CCN2c2nc(C)cc(C#N)n2)cc1 (centres unmarked) [Compound 110, 2-[6-chloro-5-fluoro-1-(4-methylphenyl)-1,3,4,9-tetrahydro-2H-pyrido[3,4-b]indol-2-yl]-6-methylpyrimidine-4-carbonitrile]
IC50: 2.8 nM

Cc1cc(C#N)nc(N2CCc3c([nH]c4ccc(Cl)c(F)c34)C2c2ccc(F)cc2)n1 (centres unmarked) [Compound 111, 2-[6-chloro-5-fluoro-1-(4-fluorophenyl)-1,3,4,9-tetrahydro-2H-pyrido[3,4-b]indol-2-yl]-6-methylpyrimidine-4-carbonitrile]
IC50: 8.1 nM

Cc1nc(N2CCc3c([nH]c4cc(F)c(Cl)cc34)C2c2cccc(F)c2F)nc(C)c1F (centres unmarked) [Compound 112, 6-chloro-1-(2,3-difluorophenyl)-7-fluoro-2-(5-fluoro-4,6-dimethylpyrimidin-2-yl)-2,3,4,9-tetrahydro-1H-pyrido[3,4-b]indole]
IC50: 3.8 nM

Cc1nc(N2CCc3c([nH]c4ccc(Cl)c(F)c34)C2c2cccc(F)c2F)ncc1F (centres unmarked) [Compound 113, 6-chloro-1-(2,3-difluorophenyl)-5-fluoro-2-(5-fluoro-4-methylpyrimidin-2-yl)-2,3,4,9-tetrahydro-1H-pyrido[3,4-b]indole]
IC50: 2.6 nM

Cc1ccc(C2c3[nH]c4ccc(Cl)c(F)c4c3CCN2c2ncc(F)c(C)n2)c(F)c1F (centres unmarked) [Compound 114, 6-chloro-1-(2,3-difluoro-4-methylphenyl)-5-fluoro-2-(5-fluoro-4-methylpyrimidin-2-yl)-2,3,4,9-tetrahydro-1H-pyrido[3,4-b]indole]
IC50: 1.1 nM

NS(=O)(=O)c1ccc(C2c3[nH]c4cc(F)c(Cl)cc4c3CCN2c2nccc(C(F)(F)F)n2)cc1 (centres unmarked) [Compound 115, 4-{6-chloro-7-fluoro-2-[4-(trifluoromethyl)pyrimidin-2-yl]-2,3,4,9-tetrahydro-1H-pyrido[3,4-b]indol-1-yl}benzene-1-sulfonamide]
IC50: 9.4 nM

Cc1ccc(C2c3[nH]c4ccc(Cl)c(F)c4c3CCN2c2nc(C)c(F)c(C)n2)cc1 (centres unmarked) [Compound 116, 6-chloro-5-fluoro-2-(5-fluoro-4,6-dimethylpyrimidin-2-yl)-1-(4-methylphenyl)-2,3,4,9-tetrahydro-1H-pyrido[3,4-b]indole]
IC50: 6.7 nM

Cc1nc(N2CCc3c([nH]c4ccc(Cl)c(F)c34)C2c2cccc(F)c2F)nc(C)c1F (centres unmarked) [Compound 117, 6-chloro-1-(2,3-difluorophenyl)-5-fluoro-2-(5-fluoro-4,6-dimethylpyrimidin-2-yl)-2,3,4,9-tetrahydro-1H-pyrido[3,4-b]indole]
IC50: 2 nM

Cc1ccc(C2c3[nH]c4ccc(Cl)c(F)c4c3CCN2c2nc(C)c(F)c(C)n2)c(F)c1F (centres unmarked) [Compound 118, 6-chloro-1-(2,3-difluoro-4-methylphenyl)-5-fluoro-2-(5-fluoro-4,6-dimethylpyrimidin-2-yl)-2,3,4,9-tetrahydro-1H-pyrido[3,4-b]indole]
IC50: 1 nM

Fc1cccc(C2c3[nH]c4ccc(Cl)cc4c3CCN2c2nccc(C(F)(F)F)n2)c1F (centres unmarked) [Compound 119, 6-chloro-1-(2,3-difluorophenyl)-2-[4-(trifluoromethyl)pyrimidin-2-yl]-2,3,4,9-tetrahydro-1H-pyrido[3,4-b]indole]
IC50: 2.2 nM

COc1ccc(C2c3[nH]c4ccc(Cl)cc4c3CCN2c2nccc(C(F)(F)F)n2)c(F)c1F (centres unmarked) [Compound 120, 6-chloro-1-(2,3-difluoro-4-methoxyphenyl)-2-[4-(trifluoromethyl)pyrimidin-2-yl]-2,3,4,9-tetrahydro-1H-pyrido[3,4-b]indole]
IC50: 3.7 nM

N#Cc1ccnc(N2CCc3c([nH]c4cc(F)c(Cl)cc34)C2c2ccc(C(F)(F)F)cc2)n1 (centres unmarked) [Compound 121, 2-{6-chloro-7-fluoro-1-[4-(trifluoromethyl)phenyl]-1,3,4,9-tetrahydro-2H-pyrido[3,4-b]indol-2-yl}pyrimidine-4-carbonitrile]
IC50: 24.6 nM

CN(C)c1ccc(C2c3[nH]c4cc(F)c(Cl)cc4c3CCN2c2nccc(C(F)(F)F)n2)cn1 (centres unmarked) [Compound 122, 5-{6-chloro-7-fluoro-2-[4-(trifluoromethyl)pyrimidin-2-yl]-2,3,4,9-tetrahydro-1H-pyrido[3,4-b]indol-1-yl}-N,N-dimethylpyridin-2-amine]
IC50: 8.2 nM

Cc1ccc(C2c3[nH]c4cc(F)c(Cl)cc4c3CCN2c2ncc(F)c(C)n2)cc1 (centres unmarked) [Compound 123, 6-chloro-7-fluoro-2-(5-fluoro-4-methylpyrimidin-2-yl)-1-(4-methylphenyl)-2,3,4,9-tetrahydro-1H-pyrido[3,4-b]indole]
IC50: 12.1 nM

Cc1nc(N2CCc3c([nH]c4cc(F)c(Cl)cc34)C2c2cccc(F)c2F)ncc1F (centres unmarked) [Compound 124, 6-chloro-1-(2,3-difluorophenyl)-7-fluoro-2-(5-fluoro-4-methylpyrimidin-2-yl)-2,3,4,9-tetrahydro-1H-pyrido[3,4-b]indole]
IC50: 8.6 nM

Cc1ccc(C2c3[nH]c4cc(F)c(Cl)cc4c3CCN2c2ncc(F)c(C)n2)c(F)c1F (centres unmarked) [Compound 125, 6-chloro-1-(2,3-difluoro-4-methylphenyl)-7-fluoro-2-(5-fluoro-4-methylpyrimidin-2-yl)-2,3,4,9-tetrahydro-1H-pyrido[3,4-b]indole]
IC50: 3.2 nM

Cc1ccnc(N2CCc3c([nH]c4cc(F)c(Cl)cc34)C2c2ccc(N(C)C)nc2)n1 (centres unmarked) [Compound 126, 5-[6-chloro-7-fluoro-2-(4-methylpyrimidin-2-yl)-2,3,4,9-tetrahydro-1H-pyrido[3,4-b]indol-1-yl]-N,N-dimethylpyridin-2-amine]
IC50: 21.3 nM

Cc1ccc(C2c3[nH]c4ccc(Cl)cc4c3CCN2c2nccc(C(F)(F)F)n2)c(F)c1F (centres unmarked) [Compound 128, 6-chloro-1-(2,3-difluoro-4-methylphenyl)-2-[4-(trifluoromethyl)pyrimidin-2-yl]-2,3,4,9-tetrahydro-1H-pyrido[3,4-b]indole]
IC50: 0.9 nM

Cc1cc(C)nc(N2CCc3c([nH]c4cc(F)c(Cl)cc34)C2c2cccc(F)c2F)n1 (centres unmarked) [Compound 129, 6-chloro-1-(2,3-difluorophenyl)-2-(4,6-dimethylpyrimidin-2-yl)-7-fluoro-2,3,4,9-tetrahydro-1H-pyrido[3,4-b]indole]
IC50: 7.6 nM

Cc1ccc(C2c3[nH]c4cc(F)c(Cl)cc4c3CCN2c2ncc(Cl)cn2)c(F)c1F (centres unmarked) [Compound 130, 6-chloro-2-(5-chloropyrimidin-2-yl)-1-(2,3-difluoro-4-methylphenyl)-7-fluoro-2,3,4,9-tetrahydro-1H-pyrido[3,4-b]indole]
IC50: 5.8 nM

Fc1cc2[nH]c3c(c2cc1Cl)CCN(c1ncc(Cl)cn1)C3c1cccc(F)c1F (centres unmarked) [Compound 131, 6-chloro-2-(5-chloropyrimidin-2-yl)-1-(2,3-difluorophenyl)-7-fluoro-2,3,4,9-tetrahydro-1H-pyrido[3,4-b]indole]
IC50: 9.2 nM

Cc1cc(C)nc(N2CCc3c([nH]c4cc(F)c(Cl)cc34)C2c2ccc(C)c(F)c2F)n1 (centres unmarked) [Compound 132, 6-chloro-1-(2,3-difluoro-4-methylphenyl)-2-(4,6-dimethylpyrimidin-2-yl)-7-fluoro-2,3,4,9-tetrahydro-1H-pyrido[3,4-b]indole]
IC50: 2.1 nM

Fc1cc2[nH]c3c(c2cc1Cl)CCN(c1ncc(C(F)(F)F)cn1)C3c1cccc(F)c1F (centres unmarked) [Compound 133, 6-chloro-1-(2,3-difluorophenyl)-7-fluoro-2-[5-(trifluoromethyl)pyrimidin-2-yl]-2,3,4,9-tetrahydro-1H-pyrido[3,4-b]indole]
IC50: 11.2 nM

Cc1ccc(C2c3[nH]c4cc(F)c(Cl)cc4c3CCN2c2ncc(C)cn2)cc1 (centres unmarked) [Compound 134, 6-chloro-7-fluoro-1-(4-methylphenyl)-2-(5-methylpyrimidin-2-yl)-2,3,4,9-tetrahydro-1H-pyrido[3,4-b]indole]
IC50: 21.7 nM

Cc1ccc(C2c3[nH]c4ccc(Cl)c(F)c4c3CCN2c2ncc(C)cn2)cc1 (centres unmarked) [Compound 135, 6-chloro-5-fluoro-1-(4-methylphenyl)-2-(5-methylpyrimidin-2-yl)-2,3,4,9-tetrahydro-1H-pyrido[3,4-b]indole]
IC50: 10.2 nM

Cc1cnc(N2CCc3c([nH]c4cc(F)c(Cl)cc34)C2c2ccc(C)c(F)c2F)nc1 (centres unmarked) [Compound 136, 6-chloro-1-(2,3-difluoro-4-methylphenyl)-7-fluoro-2-(5-methylpyrimidin-2-yl)-2,3,4,9-tetrahydro-1H-pyrido[3,4-b]indole]
IC50: 7.5 nM
